Test results reported in patent US20200060276A1, “THIAZOLE COMPOUND AND HERBICIDE” (OAT Agrio Co., Ltd., priority 2017, published 2020).

Key:
Assay type in all cases: in vivo
[1] = test system: Echinochloa crus-galli (L.) P. Beauv. var. formosensis Ohwi; experiment: Test for Herbicidal Effect in Flooding Treatment (#1), ECHDG; details: for ECHDG #1 herbicidal effect (growth inhibition rating 0-5): flooding treatment #1; for ECHDG #1 herbicidal effect (growth inhibition grade): flooding treatment at seeding, dose 2 kg/ha, visual observation on day 21
Summary of the method: (§1)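 Sieved soil in cups was flooded and left 24 h before weed seeds were sown. Compounds in acetone, diluted with Tween 80-containing water, were dropped over the whole surface at 2 kg/ha. After 21 days in a glasshouse, growth inhibition was scored visually from 0 (<10%) to 5 (≥90% or complete withering).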

Monochoria vaginalis = experiment: Test for Herbicidal Effect in Flooding Treatment (#1), MONVA; details: for MONVA #1 herbicidal effect (growth inhibition rating 0-5): flooding treatment #1; for MONVA #1 herbicidal effect (growth inhibition grade): flooding treatment at seeding, dose 2 kg/ha, visual observation on day 21
Procedure: (#1) Test for Herbicidal Effect in Flooding Treatment: Styrol cups each having an opening diameter of 8 cm (about 52 cm^2) were respectively filled with soil (45 ml) which had been passed through a sieve (2 mm). Water (about 115 ml) was mixed with the soil such that the soil was flooded. After the soil stood still for 24 hours, Monochoria vaginalis, Echinochloa crus-galli (L.) P. Beauv. var. formosensis Ohwi, Cyperus difformis (umbrella sedge), and Scirpus juncoides were seeded. Each of the compounds of the present invention was dissolved in acetone, and the obtained product was then diluted with water containing Tween 80®. Each of the resultant chemical solutions was dropped on the entire surface of an associated one of treatment sections, so that each section was treated with 1 ml of the respective chemical solution (a dose of 2 kg/ha). After the treatment, the plants were grown in a glasshouse. On day 21, a survey was conducted on the herbicidal activity by visual observation, and evaluation was made according to the following criteria. 0: Growth inhibition effect is less than 10%. 1: Growth inhibition effect is equal to or greater than 10%, and less than 30%. 2; Growth inhibition effect is equal to or greater than 30%, and less than 50%. 3: Growth inhibition effect equal to or greater than 50%, and less than 70%. 4: Growth inhibition effect is equal to or greater than 70%, and less than 90%. 5: Growth inhibition effect is equal to or greater than 90%, or complete withering is achieved. ECHDG=Echinochloa crus-galli (L.) P. Beauv. var. formosensis Ohwi, MONVA=Monochoria vaginalis, SCIJU=Scirpus juncoides, CYMIC=Cyperus microiria.

Scirpus juncoides = experiment: Test for Herbicidal Effect in Flooding Treatment (#1), SCIJU; details: for SCIJU #1 herbicidal effect (growth inhibition rating 0-5): flooding treatment #1; for SCIJU #1 herbicidal effect (growth inhibition grade): flooding treatment at seeding, dose 2 kg/ha, visual observation on day 21
Summary of the method: as §1

[2] = test system: Echinochloa crus-galli (L.) P. Beauv. var. formosensis Ohwi; experiment: Test for Herbicidal Effect in Flooding Treatment (#2), ECHDG at 2-2.5 leaf stage; details: for ECHDG (2-2.5L) #2 herbicidal effect (growth inhibition rating 0-5): flooding treatment #2, 2-2.5 leaf stage; for ECHDG (2-2.5L) #2 herbicidal effect (growth inhibition grade): flooding treatment at 2-2.5 leaf stage, dose 0.2 kg/ha, visual observation on day 21
Summary of the method: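 Flooded muddy soil was seeded with the weed, and at 2–2.5 leaf stage compound in acetone/Tween 80 water was dropped on the water surface at 0.2 kg/ha. Plants were kept in a glasshouse and scored visually on day 21 from 0 (<10% growth inhibition) to 5 (≥90% or complete withering).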

Compound	ECHDG #1 herbicidal effect (growth inhibition rating 0-5) [1]	MONVA #1 herbicidal effect (growth inhibition rating 0-5) (Monochoria vaginalis)	SCIJU #1 herbicidal effect (growth inhibition rating 0-5) (Scirpus juncoides)	ECHDG (2-2.5L) #2 herbicidal effect (growth inhibition rating 0-5) [2]	ECHDG #1 herbicidal effect (growth inhibition grade) [1]	MONVA #1 herbicidal effect (growth inhibition grade) (Monochoria vaginalis)	SCIJU #1 herbicidal effect (growth inhibition grade) (Scirpus juncoides)	ECHDG (2-2.5L) #2 herbicidal effect (growth inhibition grade) [2]
[O-][S+](Cc1c(Cl)cccc1OCC(F)(F)C(F)(F)F)c1ncc(Cl)s1 (stereo not drawn) [Compound 1B-14]	5 (Growth inhibition effect is equal to or greater than 90%, or complete withering is achieved)	5 (Growth inhibition effect is equal to or greater than 90%, or complete withering is achieved)	5 (Growth inhibition effect is equal to or greater than 90%, or complete withering is achieved)	–	–	–	–	–
[O-][S+](Cc1c(F)cccc1OC(F)F)c1ncc(Br)s1 (stereo not drawn) [Compound 1B-19]	5 (Growth inhibition effect is equal to or greater than 90%, or complete withering is achieved)	5 (Growth inhibition effect is equal to or greater than 90%, or complete withering is achieved)	5 (Growth inhibition effect is equal to or greater than 90%, or complete withering is achieved)	5 (Growth inhibition effect is equal to or greater than 90%, or complete withering is achieved)	–	–	–	–
[O-][S+](Cc1c(F)cccc1OCC(F)(F)C(F)F)c1ncc(Cl)s1 (stereo not drawn) [Compound 1B-12]	5 (Growth inhibition effect is equal to or greater than 90%, or complete withering is achieved)	5 (Growth inhibition effect is equal to or greater than 90%, or complete withering is achieved)	5 (Growth inhibition effect is equal to or greater than 90%, or complete withering is achieved)	5 (Growth inhibition effect is equal to or greater than 90%, or complete withering is achieved)	–	–	–	–
O=S(=O)(Cc1c(Cl)cccc1OCCC(F)(F)F)c1ncc(Cl)s1 [Compound 1C-59]	–	–	–	–	5 (Growth inhibition effect is equal to or greater than 90%, or complete withering is achieved)	5 (Growth inhibition effect is equal to or greater than 90%, or complete withering is achieved)	5 (Growth inhibition effect is equal to or greater than 90%, or complete withering is achieved)	4 (Growth inhibition effect is equal to or greater than 70%, and less than 90%)
O=S(=O)(Cc1c(OCC(F)(F)F)cccc1C(F)(F)F)c1ncc(Br)s1 [Compound 1C-162]	–	–	–	–	5 (Growth inhibition effect is equal to or greater than 90%, or complete withering is achieved)	5 (Growth inhibition effect is equal to or greater than 90%, or complete withering is achieved)	5 (Growth inhibition effect is equal to or greater than 90%, or complete withering is achieved)	5 (Growth inhibition effect is equal to or greater than 90%, or complete withering is achieved)
CC(c1c(F)cccc1OCC(F)(F)C(F)F)S(=O)(=O)c1ncc(Cl)s1 (stereo not drawn) [Compound 1C-148]	–	–	–	–	5 (Growth inhibition effect is equal to or greater than 90%, or complete withering is achieved)	5 (Growth inhibition effect is equal to or greater than 90%, or complete withering is achieved)	5 (Growth inhibition effect is equal to or greater than 90%, or complete withering is achieved)	5 (Growth inhibition effect is equal to or greater than 90%, or complete withering is achieved)
O=S(=O)(Cc1c(OCC(F)F)cccc1C(F)(F)F)c1ncc(Cl)s1 [Compound 1C-52]	–	–	–	–	5 (Growth inhibition effect is equal to or greater than 90%, or complete withering is achieved)	5 (Growth inhibition effect is equal to or greater than 90%, or complete withering is achieved)	5 (Growth inhibition effect is equal to or greater than 90%, or complete withering is achieved)	5 (Growth inhibition effect is equal to or greater than 90%, or complete withering is achieved)
CS(=O)(=O)c1ccc(CS(=O)(=O)c2ncc(Cl)s2)cc1 [Compound 1C-168]	–	–	–	–	5 (Growth inhibition effect is equal to or greater than 90%, or complete withering is achieved)	5 (Growth inhibition effect is equal to or greater than 90%, or complete withering is achieved)	5 (Growth inhibition effect is equal to or greater than 90%, or complete withering is achieved)	–
[O-][S+](Cc1c(OCC(F)F)cccc1OCC(F)F)c1ncc(Cl)s1 (stereo not drawn) [Compound 1B-15]	3 (Growth inhibition effect equal to or greater than 50%, and less than 70%)	5 (Growth inhibition effect is equal to or greater than 90%, or complete withering is achieved)	5 (Growth inhibition effect is equal to or greater than 90%, or complete withering is achieved)	–	–	–	–	–
COc1ccc(Cl)c(CS(=O)(=O)c2ncc(C(F)(F)F)s2)c1F [Compound 1C-167]	–	–	–	–	5 (Growth inhibition effect is equal to or greater than 90%, or complete withering is achieved)	5 (Growth inhibition effect is equal to or greater than 90%, or complete withering is achieved)	5 (Growth inhibition effect is equal to or greater than 90%, or complete withering is achieved)	–
CCOC(=O)C(F)(F)Oc1cccc(Cl)c1CS(=O)(=O)c1ncc(Cl)s1 [Compound 1C-64]	–	–	–	–	5 (Growth inhibition effect is equal to or greater than 90%, or complete withering is achieved)	5 (Growth inhibition effect is equal to or greater than 90%, or complete withering is achieved)	5 (Growth inhibition effect is equal to or greater than 90%, or complete withering is achieved)	–
[O-][S+](Cc1c(F)cccc1OCC(F)F)c1ncc(Cl)s1 (stereo not drawn) [Compound 1B-7]	5 (Growth inhibition effect is equal to or greater than 90%, or complete withering is achieved)	5 (Growth inhibition effect is equal to or greater than 90%, or complete withering is achieved)	5 (Growth inhibition effect is equal to or greater than 90%, or complete withering is achieved)	–	–	–	–	–
C#CCN(C)c1cccc(F)c1CS(=O)(=O)c1ncc(Cl)s1 [Compound 1C-169]	–	–	–	–	5 (Growth inhibition effect is equal to or greater than 90%, or complete withering is achieved)	5 (Growth inhibition effect is equal to or greater than 90%, or complete withering is achieved)	5 (Growth inhibition effect is equal to or greater than 90%, or complete withering is achieved)	–
CCOc1ccc(Cl)cc1C(F)(F)S(=O)(=O)c1nc(F)c(Cl)s1 [Compound 1C-139]	–	–	–	–	–	5 (Growth inhibition effect is equal to or greater than 90%, or complete withering is achieved)	5 (Growth inhibition effect is equal to or greater than 90%, or complete withering is achieved)	1 (Growth inhibition effect is equal to or greater than 10%, and less than 30%)
O=S(=O)(Cc1c(OCC(F)F)cccc1OCC(F)F)c1ncc(Cl)s1 [Compound 1C-129]	–	–	–	–	5 (Growth inhibition effect is equal to or greater than 90%, or complete withering is achieved)	5 (Growth inhibition effect is equal to or greater than 90%, or complete withering is achieved)	4 (Growth inhibition effect is equal to or greater than 70%, and less than 90%)	–
CC(c1c(Cl)cccc1OCCC(F)(F)F)S(=O)(=O)c1ncc(Cl)s1 (racemic) [Compound 1C-150]	–	–	–	–	5 (Growth inhibition effect is equal to or greater than 90%, or complete withering is achieved)	5 (Growth inhibition effect is equal to or greater than 90%, or complete withering is achieved)	5 (Growth inhibition effect is equal to or greater than 90%, or complete withering is achieved)	–
